Assay [1] deals with R-1 cells (Rhabdomyosarcoma Cells). The experiment in a line: R-1 activity (bioliquid assay), cytotoxicity. The note with it: for IC50: Rhabdomyosarcoma cell. The format is cell-based. An excerpt: The indoloquinones II (formula II) have been tested in respect of their cytotoxic activity against L1210 cells and R-1 cells (Rhabdomyosarcoma Cells) in a bioliquid assay at the department of oncology of the Free University of Amsterdam (Table I). […] (Table II). Eight indoloquinones (E.O. 1, E.O. 2, E.O. 4, E.O. 4A, E.O. 8, E.O. 9, E.O. 33 and E.O. 35) have been tested in a panel of five human tumour lines (TNO Rijswijk; Table III).
For the determination of the R-1 activity, Rhabdomyosarcoma cells were brought into Falcon multiwells (growth area: 9.6 cm^2) (~10^6 cells per dish) containing 3 ml of Dulbecco's medium supplemented with 10% Foeto Calf Serum (FCS). […] Thereupon the drug solution was removed and the cells were covered with fresh medium. After 48 hours the cells were trypsinized and counted on a Sysmex microcell counter (CC110).
(§1) The in vitro L1210 and R-1 activities of the indoloquinones (formula III), were also determined in the bioliquid assays as described above.

In a further assay the test system is L1210 cells. Description: L1210 activity (bioliquid assay), cytotoxicity. The format is cell-based. The note with it: for IC50: Mus musculus; for ID-50 L1210: 2880 min.
From the text: The indoloquinones II (formula II) have been tested in respect of their cytotoxic activity against L1210 cells and R-1 cells (Rhabdomyosarcoma Cells) in a bioliquid assay at the department of oncology of the Free University of Amsterdam (Table I). In addition to this seven compounds (E.O. 1, E.O. 2, E.O. 4, E.O. 7, E.O. 9, E.O. 16 and E.O. 17) have been tested on L1210 activity in a clonogenic assay at TNO, Rijswijk. Further, the lowest active doses of the compounds E.O. 1, E.O. 2, E.O. 4 and E.O. 9 have been determined at TNO Rijswijk, according to the method described by Lamberts et al. [Oncology, 40, 301 (1983)]. (Table II). Eight indoloquinones (E.O. 1, E.O. 2, E.O. 4, E.O. 4A, E.O. 8, E.O. 9, E.O. 33 and E.O. 35) have been tested in a panel of five human tumour lines (TNO Rijswijk; Table III). From the latter group three indoloquinones (E.O. 1, E.O. 4 and E.O. 9) have been selected for a cytotoxicity study, involving five slowly growing human tumour lines (University of Freiburg; Table IV).
For this purpose, L1210 cells were grown, as suspension, in Falcon multi-wells (growth area: 9.6 cm^2) using RPMI supplemented with 15% FCS and 2-mercapto-ethanol (60 μmol) as medium. In this medium, the cells were continuously incubated with the compound to be tested at 37° C. in an atmosphere of 5% CO2 in humidified air for 48 hours. Thereupon they were counted on a Sysmex microcell counter (CC110).
as §1

[2] abbreviates: Table I, bioliquid assay, read-out: ID-50 R-1.
Setting [3] is: L1210, Table I, bioliquid assay, 48 hours, read-out: ID-50 L1210.
Where [4] appears, read: read-out: ID-50 R-1, Table VIII.
Setting [5] is: L1210, 48 h, read-out: ID-50 L1210, Table VIII.
Where [6] appears, read: Table IA, para-indoloquinone diesters, read-out: ID-50 R-1.
The mark [7] stands for this setting: L1210, 48 h, Table IA, para-indoloquinone diesters, read-out: ID-50 L1210.

In brackets after ≈: the same amount, converted by molar mass. Like-named read-outs stand apart in the source and are kept apart here.

In the case of `COC1=CC(=O)c2c(c(CO)c(/C=C/COC(C)=O)n2C)C1=O` [E.O. 1A, 3-Hydroxymethyl-5-methoxy-1-methyl-2-[1H-indole-4,7-dione]prop-β-en-α-yl acetate], the IC50 was determined as 3.2 µg/mL in assay [1] (setting [2]) and 2.8 µg/mL in the assay on L1210 cells (setting [3]).
Regarding `COC1=CC(=O)c2c(c(COC(C)=O)c(/C=C/CO)n2C)C1=O` [E.O. 1B, 3-Acetoxymethyl-5-methoxy-1-methyl-2-[1H-indole-4,7-dione]prop-β-en-α-ol], the IC50 in assay [1] (setting [2]) turned out to be 0.05 µg/mL (≈ 0.157 µM); with L1210 cells (setting [3]) it was 0.9 µg/mL (≈ 2.82 µM).
Take `COC1=CC(=O)c2c(c(COC(N)=O)c(/C=C/COC(N)=O)n2C)C1=O` [E.O. 3, 3-Carbamoyloxymethyl-5-methoxy-1-methyl-2-[1H-indole-4,7-dione]prop-β-en-α-yl carbamate]: the IC50 is more than 10 µg/mL in assay [1] (setting [2]) and 8 µg/mL (≈ 22 µM) with L1210 cells (setting [3]).
For the molecule `CC(=O)OC/C=C/c1c(COC(C)=O)c2c(n1C)C(=O)C=C(NCCO)C2=O` [E.O. 5, 3-Acetoxymethyl-5-(2-hydroxyethyl-1-amino)-1-methyl-2-[1H-indole-4,7-dione]prop-β-en-αyl acetate], the IC50 in assay [1] (setting [2]) was more than 10 µg/mL; in assay [1] (Table VI, read-out: ID-50 R-1), more than 10 µg/mL; in the assay on L1210 cells (setting [3]), more than 10 µg/mL. Also, in the assay with L1210 cells (Table VI), the “ID-50 L1210” value was more than 10 µg/mL.
As to `COCc1c2c(n(C)c1/C=C/COC(=O)NCCCl)C(=O)C=C(OC)C2=O` [E.O. 10, 5-Methoxy-3-methoxymethyl-1-methyl-2-[1H-indole-4,7-dione]prop-β-en-α-yl N-[2-chloro-1-ethyl]carbamate], the IC50 (in assay [1] (setting [2]); in the assay with L1210 cells (setting [3])) was more than 10 µg/mL in each case. In assay [1] (Table VII), the “ID-50 R-1” value was more than 10 µg/mL. The “ID-50 L1210” value with L1210 cells (Table VII) is more than 10 µg/mL.
As to `COC1=CC(=O)c2c(c(COC(=O)NCCCl)c(/C=C/COC(=O)NCCCl)n2C)C1=O` [E.O. 13, 3-(N-chloroethylcarbamoyloxymethyl)-5-methoxy-1-methyl-2-[1H-indole-4,74,7-dione]prop-β-en-α-yl N-chloroethyl carbamate], the IC50 in assay [1] (setting [2]) is 1.1 µg/mL (≈ 2.25 µM); in the assay on L1210 cells (setting [3]), 10 µg/mL (≈ 20.5 µM).
With `Cn1c(/C=C/CO)c(CO)c2c1C(=O)C=C(Nc1ccccc1)C2=O` [E.O. 15, 3-Hydroxymethyl-5-phenylamino-1-methyl-2-[1H-indole-4,7-dione]prop-β-en-α-ol], the IC50 with L1210 cells (setting [3]) was found to be 0.7 µg/mL (≈ 2.07 µM).
Take `COC1=C(C)C(=O)c2c(c(CO)c(/C=C/CO)n2C)C1=O` [E.O. 18, 1,6-Dimethyl-5-hydroxymethyl-5-methoxy-2-[1H-indole-4,7-dione]prop-β-en-α-ol]: the IC50 came out at 2.2 µg/mL (≈ 7.55 µM) in assay [1] (setting [2]) and 2.4 µg/mL (≈ 8.24 µM) in the assay with L1210 cells (setting [3]).
Take `CC1=C(N2CC2)C(=O)c2c(CO)c(/C=C/CO)n(C)c2C1=O` [E.O. 19, 5-Aziridino-1,6-dimethyl-3-hydroxymethyl-2-[1H-indole-4,7-dione]prop-β-en-α-ol]: the IC50 in assay [1] (read-out: ID-50 R-1, Table I, bioliquid assay) amounted to 0.1 µg/mL (≈ 0.331 µM); in assay [1] (setting [4]) it was 0.12 µg/mL (≈ 0.397 µM); with L1210 cells (setting [5]), 2 µg/mL (≈ 6.62 µM).
For `COC(=O)/C=C/c1c(C(=O)OC)c2c(n1C)C(=O)C(C)=C(OC)C2=O` [E.O. 32, Methyl 1,6-dimethyl-5-methoxy-3-methoxycarbonyl-2-[1H-indole-4,7-dione]acrylate], the IC50 was more than 10 µg/mL in assay [1] (setting [6]) and 3.5 µg/mL (≈ 10.1 µM) in the assay on L1210 cells (setting [7]).
Take `COC1=CC(=O)c2c(c(COC(=O)c3ccccc3)c(/C=C/COC(=O)c3ccccc3)n2C)C1=O` [E.O. 36, 3-Benzoxymethyl-5-methoxy-1-methyl-2-[1H-indole-4,7-dione]prop-β-en-α-yl benzoate]: the IC50 in assay [1] (setting [2]) came to 2.6 µg/mL (≈ 5.36 µM); with L1210 cells (setting [3]), 0.7 µg/mL (≈ 1.44 µM).
For the molecule `CCCCNC(=O)OC/C=C/c1c(COC(=O)NCCCC)c2c(n1C)C(=O)C=C(OC)C2=O` [E.O. 37, 3-[N-butylcarbamoyloxymethyl]-5-methoxy-1-methyl-2-[1H-indole-4,7-dione]prop-β-en-α-yl N-butylcarbamate], the IC50 in assay [1] (setting [2]) is 6.5 µg/mL (≈ 13.7 µM); with L1210 cells (setting [3]), more than 10 µg/mL. Further, the “ID-50 L1210” value in the assay on L1210 cells (Table VII) is more than 10 µg/mL.
As for `COC1=CC(=O)c2c(c(COC(=O)Nc3ccccc3)c(/C=C/COC(=O)Nc3ccccc3)n2C)C1=O` [E.O. 38, 5-Methoxy-1-methyl-3-[N-phenylcarbamoyloxymethyl]-2-[1H-indole-4,7-dione]prop-β-en-α-yl N-phenylcarbamate], the IC50 in assay [1] (setting [2]) is 8.5 µg/mL (≈ 16.5 µM); in the assay on L1210 cells (setting [3]) it was more than 10 µg/mL. Besides, the “ID-50 L1210” value in the assay on L1210 cells (Table VII) was more than 10 µg/mL.
Consider `COC1=CC(=O)c2c(c(CNc3ccccc3)c(/C=C/COC(C)=O)n2C)C1=O` [E.O. 39, 5-Methoxy-1-methyl-3-(N-phenylaminomethyl)-2-[1H-indole-4,7-dione]prop-β-en-α-yl acetate], for which the “R-1 activity” value in assay [1] was “rather high R-1 activity”. Moreover, the IC50 in assay [1] (setting [2]) is 1 µg/mL; in the assay on L1210 cells (setting [3]), 10 µg/mL.
For `COC1=CC(=O)c2c(c(C)c(/C=C/COC(C)=O)n2C)C1=O` [E.O. 41, 5-Methoxy-1,3-dimethyl-2-[1H-indole-4,7-dione]prop-β-en-α-yl acetate], the IC50 in assay [1] (setting [2]) was more than 10 µg/mL; in assay [1] (Table VII, read-out: ID-50 R-1), more than 10 µg/mL; with L1210 cells (setting [3]), more than 10 µg/mL. Moreover, in the assay on L1210 cells (Table VII), the “ID-50 L1210” value is more than 10 µg/mL.
Regarding `CC(=O)OC/C=C/c1c(COC(C)=O)c2c(n1C)C(=O)C=C(NCCN(C)C)C2=O` [E.O. 47, 3-Acetoxymethyl-5-[2-(N,N-dimethylamino)ethyl-1-amino]-1-methyl-2-[1H-indole-4,7-dione]prop-β-en-α-yl acetate], the “R-1 activity” value in assay [1] is reported as “rather high activities”. The IC50 in assay [1] (setting [2]) was 4.4 µg/mL; in the assay on L1210 cells (setting [3]) it was more than 10 µg/mL. In the assay with L1210 cells (Table VI), the “ID-50 L1210” value is more than 10 µg/mL.
`CC(=O)OCc1c2c(n(C)c1/C=C/CO)C(=O)C=C(NCCN(C)C)C2=O` [E.O. 48, 3-Acetoxymethyl-5-[2-(N,N-dimethylamino)ethyl-1-amino]-1-methyl-2-[1H-indole-4,7-dione]prop-β-en-α-ol]: the IC50 in assay [1] (setting [2]) was more than 10 µg/mL; in assay [1] (Table VI, read-out: ID-50 R-1), more than 10 µg/mL; in the assay with L1210 cells (setting [3]), more than 10 µg/mL. Further, the “ID-50 L1210” value in the assay on L1210 cells (Table VI) is more than 10 µg/mL.
For the molecule `Cn1c(/C=C/CO)c(CO)c2c1C(=O)C=C(NCCc1ccccn1)C2=O` [E.O. 51, 3-Hydroxymethyl-1-methyl-5-[2-pyridylethyl-1-amino]-2-[1H-indole-4,7-dione]prop-β-en-α-ol], the IC50 in assay [1] (setting [2]) is 4.5 µg/mL (≈ 12.2 µM); with L1210 cells (setting [3]) it was more than 10 µg/mL. Moreover, in the assay on L1210 cells (Table VI), the “ID-50 L1210” value is more than 10 µg/mL.
Consider `CC(=O)OC/C=C/c1c(COC(C)=O)c2c(n1C)C(=O)C=C(NCCc1ccccn1)C2=O` [E.O. 52, 3-Acetoxymethyl-1-methyl-5-[2-pyridylethyl-1-amino]-2-[1H-indole-4,7-dione]prop-β-en-α-yl acetate], for which the “R-1 activity” value in assay [1] was “rather high activities”. The IC50 was 3.3 µg/mL in assay [1] (setting [2]) and more than 10 µg/mL in the assay on L1210 cells (setting [3]). In addition, the “ID-50 L1210” value with L1210 cells (Table VI) was more than 10 µg/mL.
On to `CC(=O)OC/C=C/c1c(COC(C)=O)c2c(n1C)C(=O)C=C(N1CC1C)C2=O` (stereo not drawn) [E.O. 53, 3-Acetoxymethyl-1-methyl-5-propyleneamino-2-[1H-indole-4,7-dione]prop-β-en-α-yl acetate], for which the IC50 in assay [1] (setting [4]) came out at 1.4 µg/mL; in the assay with L1210 cells (setting [5]), 3.4 µg/mL.
In the case of `CCNC1=CC(=O)c2c(c(CO)c(/C=C/CO)n2C)C1=O` [E.O. 56, 5-Ethylamino-3-hydroxymethyl-1-methyl-2-[1H-indole-4,7-dione]prop-β-en-α-ol], the IC50 is more than 10 µg/mL in assay [1] (setting [2]); more than 10 µg/mL in assay [1] (Table VI, read-out: ID-50 R-1); 5.1 µg/mL (≈ 17.6 µM) in the assay on L1210 cells (setting [3]).
Regarding `CCNC1=CC(=O)c2c(c(C(=O)OC)c(/C=C/C(=O)OC)n2C)C1=O` [E.O. 57, Methyl 5-ethylamino-3-methoxycarbonyl-1-methyl-2-[1H-indole-4,7-dione]acrylate], the figures for the IC50 (in assay [1] (setting [6]); in the assay with L1210 cells (setting [7])) were 3.2 µg/mL (≈ 9.24 µM) and 1.4 µg/mL (≈ 4.04 µM), respectively.
For `CCNC1=CC(=O)c2c(c(COC(C)=O)c(/C=C/COC(C)=O)n2C)C1=O` [E.O. 58, 3-Acetoxymethyl-5-ethylamino-1-methyl-2-[1H-indole-4,7-dione]prop-β-en-α-yl acetate], the IC50 was more than 10 µg/mL in assay [1] (setting [2]); more than 10 µg/mL in assay [1] (Table VI, read-out: ID-50 R-1); more than 10 µg/mL in the assay with L1210 cells (setting [3]). Moreover, the “ID-50 L1210” value in the assay on L1210 cells (Table VI) is more than 10 µg/mL.

Source of the values: patent publication US5079257A, “Indoloquinone compounds” (priority 1986, dated 1992).
